Laboratory results as given in ChEMBL document CHEMBL1201862, “PubChem BioAssay data set” (2004).
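Five compound concentrations were applied to cells in 96-well plates for 48 hours; endpoints were derived by simple linear interpolation of the resulting dose-response curve. GI50 is the concentration that inhibits growth by half.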 Active and inactive are the calls of the source. No stated cut-off is given here; in the data, active = GI50 up to about 1.1 µM and inactive = higher.

Experiments:
Test in all cases: growth of human tumour cells (NCI), 48 h
NCI-H23 = test system: NCI-H23
HCT-15 = test system: HCT-15
M14 = test system: M14
HOP-62 = test system: HOP-62
RPMI-8226 = test system: RPMI-8226
CAKI-1 = test system: CAKI-1
EKVX = test system: EKVX
UACC-62 = test system: UACC-62
UO-31 = test system: UO-31
SNB-19 = test system: SNB-19
COLO 205 = test system: COLO 205
A498 = test system: A498
SF-295 = test system: SF-295
KM-20L2 = test system: KM-20L2
TK-10 = test system: TK-10
LXFL 529 = test system: LXFL 529
HT-29 = test system: HT-29
NCI/ADR-RES = test system: NCI/ADR-RES
MDA-N = test system: MDA-N
DU-145 = test system: DU-145

SMILES | GI50 (NCI-H23) | GI50 (HCT-15) [µM] | GI50 (M14) | GI50 (HOP-62) | GI50 (RPMI-8226) | GI50 (CAKI-1) | GI50 (EKVX) | GI50 (UACC-62) | GI50 (UO-31) | GI50 (SNB-19) | GI50 (COLO 205) | GI50 (A498) | GI50 (SF-295) | GI50 (KM-20L2) | GI50 (TK-10) | GI50 (LXFL 529) | GI50 (HT-29) | GI50 (NCI/ADR-RES) | GI50 (MDA-N) | GI50 (DU-145)
O=C1CCC(=O)N1Sc1ccccc1 | > 100 µM (inactive) | > 100 | > 100 µM (inactive) | > 100 µM (inactive) | > 100 µM (inactive) | > 100 µM (inactive) | > 100 µM (inactive) | > 100 µM (inactive) | > 100 µM (inactive) | > 100 µM (inactive) | > 100 µM (inactive) | > 100 µM (inactive) | > 100 µM (inactive) | > 100 µM (inactive) | > 100 µM (inactive) | – | – | – | – | –
CC(=O)Nc1ccc(-c2nnc(SCC(=O)Nc3ccc(C)cc3)o2)cc1 | 15.7 µM (inactive) | 16.2 | 16.1 µM (inactive) | 56.2 µM (inactive) | 26.2 µM (inactive) | 11.9 µM (inactive) | – | 16.9 µM (inactive) | 47.6 µM (inactive) | – | 17.7 µM (inactive) | – | 16.6 µM (inactive) | 19.5 µM (inactive) | 27.8 µM (inactive) | 16.3 µM (inactive) | 17 µM (inactive) | – | – | –
NCCCNc1ccc2c3c(nn2CCNCCO)-c2c(O)ccc(O)c2C(=O)c13 | 1.25 µM (inactive) | 5.01 | 3.2 µM (inactive) | 0.362 µM (active) | 1.2 µM (inactive) | – | – | 0.883 µM (active) | – | 0.354 µM (active) | 1.44 µM (inactive) | 1.82 µM (inactive) | 0.889 µM (active) | 2.89 µM (inactive) | 4.2 µM (inactive) | – | 3.68 µM (inactive) | 29.7 µM (inactive) | 2.75 µM (inactive) | 1.29 µM (inactive)
O=C1C(c2ccc(Br)cc2)=[N+]([O-])c2ccccc21 | 15.8 µM (inactive) | 5.97 | 16.3 µM (inactive) | 27 µM (inactive) | 3.88 µM (inactive) | – | 16 µM (inactive) | 16 µM (inactive) | 14.3 µM (inactive) | 21 µM (inactive) | 16.3 µM (inactive) | 22.1 µM (inactive) | > 10 µM (inactive) | 20.7 µM (inactive) | 15.9 µM (inactive) | 5.16 µM (inactive) | 21.6 µM (inactive) | – | – | –
COC(=O)CCC(NC(=S)N/N=C(\C)c1ccc[nH]1)C(=O)OC (stereo not given) | > 100 µM (inactive) | > 100 | > 100 µM (inactive) | > 100 µM (inactive) | – | – | > 100 µM (inactive) | > 100 µM (inactive) | > 100 µM (inactive) | > 100 µM (inactive) | > 100 µM (inactive) | > 100 µM (inactive) | > 100 µM (inactive) | > 100 µM (inactive) | > 100 µM (inactive) | > 100 µM (inactive) | > 100 µM (inactive) | – | – | –
CC(C(=O)N1C(=O)N(C(=O)C(C)C(O)c2ccccc2)C2CCCCC21)C(O)c1ccccc1 (stereo not given) | > 100 µM (inactive) | > 100 | 79.8 µM (inactive) | > 100 µM (inactive) | 34 µM (inactive) | – | 81.3 µM (inactive) | > 100 µM (inactive) | 34.6 µM (inactive) | 92.7 µM (inactive) | > 100 µM (inactive) | – | 34.9 µM (inactive) | > 100 µM (inactive) | > 100 µM (inactive) | 44.1 µM (inactive) | > 10 µM (inactive) | – | – | –
CC(C)c1cccc(C(C)C)c1NC(=O)C(=O)CC(=O)CC(c1ccccc1)c1c(O)oc2ccccc2c1=O (stereo not given) | > 100 µM (inactive) | – | > 100 µM (inactive) | > 100 µM (inactive) | > 100 µM (inactive) | > 100 µM (inactive) | > 100 µM (inactive) | > 100 µM (inactive) | > 100 µM (inactive) | > 100 µM (inactive) | > 100 µM (inactive) | > 100 µM (inactive) | > 100 µM (inactive) | > 100 µM (inactive) | > 100 µM (inactive) | – | > 100 µM (inactive) | – | – | –
Cc1cc(C)c(N)c(C)c1N | > 100 µM (inactive) | > 100 | > 100 µM (inactive) | > 100 µM (inactive) | > 100 µM (inactive) | – | > 100 µM (inactive) | > 100 µM (inactive) | > 100 µM (inactive) | > 100 µM (inactive) | > 100 µM (inactive) | > 100 µM (inactive) | > 100 µM (inactive) | > 100 µM (inactive) | > 100 µM (inactive) | > 100 µM (inactive) | – | – | – | –
Nc1nc2c(ncn2C2OC(CO)C(O)C2N)c(=O)[nH]1 (stereo not given) | > 100 µM (inactive) | > 100 | > 100 µM (inactive) | > 100 µM (inactive) | – | > 100 µM (inactive) | – | > 100 µM (inactive) | > 100 µM (inactive) | > 100 µM (inactive) | > 100 µM (inactive) | > 100 µM (inactive) | > 100 µM (inactive) | – | > 100 µM (inactive) | > 100 µM (inactive) | > 100 µM (inactive) | – | – | –
